# Assay results as given in publication PMC9972480, “Synthesis of Quinoline and Dihydroquinoline Embelin Derivatives as Cardioprotective Agents” (Journal of Natural Products, 2023).
# What was measured:
# [1] = MTT cell viability assay (cytotoxicity) in H9c2 cardiomyocytes; assay type: cell-based, rat; settings: rat, H9c2 cardiomyocytes, 24 h, MTT; for viability at 24 h, 10 µM / viability at 24 h, 20 µM: mean ± SD, n = 3; for IC50 at 24 h: H9c2 cardiomyocytes (embryonic heart-derived cells), stated for both types of cells
# Experimental: (§1) The potential cytotoxicity of embelin (1) together with derivatives (4a–4m, 5a–5d, 6a–6m) was tested in cardiomyocytes and macrophages in order to ensure that compounds lack toxicity also in immune cells. Cell viability was determined by the MTT assay.[58] Four dihydroquinoline derivatives (4b, 4f, 4i, and 4m) and six quinoline compounds (6a, 6d, 6e, 6i, 6k, and 6m) maintained higher viable cell rates in both types of cells. IC50 values of these derivatives were higher than 40 μM and were selected for further analysis.
# (§2) J774A.1 murine macrophage cells, H9c2 embryonic rat heart-derived cells, and MCF-7 breast cancer cells were purchased from American Type Cell Culture (ATCC, Manassas, VA, USA). Cells were cultured in Dulbecco’s modified Eagle medium with 10% fetal bovine serum and 1% penicillin/streptomycin (Lonza) and were maintained at 37 °C in a humidified incubator containing 5% CO2.
# (§3) Cell viability was assessed by conducting an MTT [3-(4,5-dimethylthiazol-2-yl)-2,5-diphenyltetrazolium bromide dye] assay. Briefly, J 774A.1, H9c2, and MCF7 cells were seeded in 96-well plates for 24 h. Then, cells were treated with DOX in the absence or presence of compounds. MTT (Sigma) reagent was added to the medium for 1 h at 37 °C. Then, the formazan was dissolved in dimethyl sulfoxide (DMSO, 100 μL). Absorbance was measured at 540 nm with a microplate reader (BMG Labtech).
# [2] = MTT cell viability assay (cytotoxicity) in J774 macrophages; assay type: cell-based, murine; settings: mouse
# Experimental: as §1, §2, §3
SMILES,"viability at 24 h, 10 µM [1]","viability at 24 h, 20 µM [1]","viability at 24 h, 10 µM ([2]; J774 macrophages, 10 μM, 24 h, MTT, mean ± SD, n = 3, read-out: Cell viability (%) J774 macrophages 10 μM)","viability at 24 h, 20 µM ([2]; J774 macrophages, 20 μM, 24 h, MTT, mean ± SD, n = 3, read-out: Cell viability (%) J774 macrophages 20 μM)",melting point,"viability at 24 h, 10 µM [2]","viability at 24 h, 20 µM [2]",IC50 at 24 h [1],IC50 at 24 h [2]
"CCCCCCCCCCCC1=C(O)C(=O)C=C(O)C1=O [Compound 1, embelin]",36.9 ± 5.8%,8.3 ± 0.1%,21.3 ± 2.7%,15.3 ± 0.8%,–,–,–,–,–
"CCCCCCCCCCCC1=C(O)C(=O)C2=C(Nc3ccccc3C2c2ccc([N+](=O)[O-])cc2)C1=O (stereo not drawn) [Compound 4a, 2-Hydroxy-9-(4-nitrophenyl)-3-undecyl-9,10-dihydroacridine-1,4-dione]",94.8 ± 3.5%,89.4 ± 0.6%,–,–,164 to 166 °C,50 ± 5.6%,43.7 ± 2%,–,–
"CCCCCCCCCCCC1=C(O)C(=O)C2=C(Nc3ccccc3C2c2ccccc2)C1=O (stereo not drawn) [Compound 4b, 2-Hydroxy-9-phenyl-3-undecyl-9,10-dihydroacridine-1,4-dione]",98.1 ± 6.8%,95.8 ± 7.7%,–,–,161 to 162 °C,99.7 ± 1.1%,98.7 ± 1.2%,> 40 µM,> 40 µM
"CCCCCCCCCCCC1=C(O)C(=O)C2=C(Nc3ccccc3C2c2ccc(Cl)cc2)C1=O (stereo not drawn) [Compound 4c, 2-Hydroxy-9-(4-chlorophenyl)-3-undecyl-9,10-dihydroacridine-1,4-dione]",98.9 ± 3.4%,93.9 ± 2.3%,–,–,139 to 141 °C,49.1 ± 3.4%,39.5 ± 3.6%,–,–
"CCCCCCCCCCCC1=C(O)C(=O)C2=C(Nc3ccccc3C2c2ccc(Br)cc2)C1=O (stereo not drawn) [Compound 4d, 2-Hydroxy-9-(4-bromophenyl)-3-undecyl-9,10-dihydroacridine-1,4-dione]",99.5 ± 2.7%,98.9 ± 6.1%,–,–,139 to 140 °C,38.5 ± 5.9%,32.9 ± 3.4%,–,–
"CCCCCCCCCCCC1=C(O)C(=O)C2=C(Nc3ccccc3C2c2ccc(F)cc2)C1=O (stereo not drawn) [Compound 4e, 2-Hydroxy-9-(4-fluorophenyl)-3-undecyl-9,10-dihydroacridine-1,4-dione]",93.4 ± 7.2%,83.7 ± 1.5%,–,–,140 to 142 °C,57.3 ± 3.8%,44.6 ± 3.3%,–,–
"CCCCCCCCCCCC1=C(O)C(=O)C2=C(Nc3ccccc3C2c2cccc(F)c2)C1=O (stereo not drawn) [Compound 4f, 2-Hydroxy-9-(3-fluorophenyl)-3-undecyl-9,10-dihydroacridine-1,4-dione]",88.7 ± 5.3%,81.1 ± 2.9%,–,–,240 to 242 °C,99.5 ± 1.3%,97.8 ± 0.6%,> 40 µM,> 40 µM
"CCCCCCCCCCCC1=C(O)C(=O)C2=C(Nc3ccccc3C2c2ccc(C(=O)OC)cc2)C1=O (stereo not drawn) [Compound 4g, Methyl 4-(2-hydroxy-1,4-dioxo-3-undecyl-1,4,9,10-tetrahydroacridin-9-yl)benzoate]",72.6 ± 1.1%,62.1 ± 1.3%,–,–,146 to 148 °C,31.2 ± 5.3%,29.6 ± 3.9%,–,–
"CCCCCCCCCCCC1=C(O)C(=O)C2=C(Nc3ccccc3C2c2ccsc2)C1=O (stereo not drawn) [Compound 4h, 2-Hydroxy-9-(thiophen-3-yl)-3-undecyl-9,10-dihydroacridine-1,4-dione]",92.5 ± 6.6%,75.8 ± 2.3%,–,–,190 to 192 °C,84.9 ± 2.6%,51.4 ± 2.9%,–,–
"CCCCCCCCCCCC1=C(O)C(=O)C2=C(Nc3ccccc3C2c2ccc(OC)c(OC)c2)C1=O (stereo not drawn) [Compound 4j, 2-Hydroxy-9-(3,4-dimethoxyphenyl)-3-undecyl-9,10-dihydroacridine-1,4-dione]",68.9 ± 3.6%,60.6 ± 4.9%,–,–,152 to 154 °C,89.1 ± 5.5%,36.9 ± 3.8%,–,–
"CCCCCCCCCCCC1=C(O)C(=O)C2=C(Nc3ccc(OC)cc3C2c2ccc([N+](=O)[O-])cc2)C1=O (stereo not drawn) [Compound 4k, 2-Hydroxy-7-methoxy-9-(4-nitrophenyl)-3-undecyl-9,10-dihydroacridine-1,4-dione]",99.7 ± 1.1%,90.7 ± 1.5%,–,–,153 to 155 °C,55.6 ± 6.7%,37.8 ± 4.8%,–,–
"CCCCCCCCCCCC1=C(O)C(=O)C=C(Nc2ccccc2)C1=O [Compound 5a, 2-Hydroxy-5-(phenylamino)-3-undecylcyclohexa-2,5-diene-1,4-dione]",99 ± 7.1%,83 ± 7%,–,–,–,56.9 ± 4%,56.2 ± 2%,–,–
"CCCCCCCCCCCC1=C(O)C(=O)C=C(Nc2ccc(OC)cc2)C1=O [Compound 5b, 2-Hydroxy-5-((4-methoxyphenyl)amino)-3-undecylcyclohexa-2,5-diene-1,4-dione]",89.3 ± 9.2%,87.4 ± 6.7%,–,–,–,68.4 ± 3.8%,48.3 ± 1.7%,–,–
"CCCCCCCCCCCC1=C(O)C(=O)C=C(Nc2ccc(Br)cc2)C1=O [Compound 5c, 5-((4-Bromophenyl)amino)-2-hydroxy-3-undecylcyclohexa-2,5-diene-1,4-dione]",61.9 ± 2.7%,56.1 ± 3.4%,–,–,–,56.9 ± 5.5%,39.4 ± 5.3%,–,–
"CCCCCCCCCCCC1=C(O)C(=O)C=C(Nc2cccc([N+](=O)[O-])c2)C1=O [Compound 5d, 2-Hydroxy-5-((3-nitrophenyl)amino)-3-undecylcyclohexa-2,5-diene-1,4-dione]",67.8 ± 2.1%,57.5 ± 1.4%,–,–,–,65.5 ± 1.9%,50.8 ± 7%,–,–
"CCCCCCCCCCCC1=C(O)C(=O)c2c(nc3ccccc3c2-c2ccccc2)C1=O [Compound 6b, 2-Hydroxy-9-phenyl-3-undecylacridine-1,4-dione]",99.7 ± 2.1%,68.1 ± 4.6%,–,–,–,81.8 ± 4.7%,63.9 ± 6.6%,–,–
"CCCCCCCCCCCC1=C(O)C(=O)c2c(nc3ccccc3c2-c2ccc(Cl)cc2)C1=O [Compound 6c, 2-Hydroxy-9-(4-chlorophenyl)-3-undecylacridine-1,4-dione]",95 ± 8.4%,74.3 ± 4.8%,–,–,–,83.4 ± 0.5%,55.8 ± 5.7%,–,–
"CCCCCCCCCCCC1=C(O)C(=O)c2c(nc3ccccc3c2-c2ccc(F)cc2)C1=O [Compound 6e, 2-Hydroxy-9-(4-fluorophenyl)-3-undecylacridine-1,4-dione]",96.7 ± 8.1%,93.9 ± 0.9%,–,–,–,93.1 ± 4.5%,76.6 ± 5.9%,> 40 µM,> 40 µM
"CCCCCCCCCCCC1=C(O)C(=O)c2c(nc3ccccc3c2-c2cccc(F)c2)C1=O [Compound 6f, 2-Hydroxy-9-(3-fluorophenyl)-3-undecylacridine-1,4-dione]",98.3 ± 4.9%,84.5 ± 4.3%,–,–,–,79.3 ± 4.6%,62.2 ± 4.3%,–,–
"CCCCCCCCCCCC1=C(O)C(=O)c2c(nc3ccccc3c2-c2ccc(C(=O)OC)cc2)C1=O [Compound 6g, Methyl 4-(2-hydroxy-1,4-dioxo-3-undecyl-1,4-dihydroacridin-9-yl)benzoate]",88.7 ± 10.4%,70.6 ± 3%,–,–,–,78.4 ± 5.7%,42.2 ± 0.3%,–,–
"CCCCCCCCCCCC1=C(O)C(=O)c2c(nc3ccccc3c2-c2ccsc2)C1=O [Compound 6h, 2-Hydroxy-9-(thiophen-3-yl)-3-undecylacridine-1,4-dione]",75.3 ± 5%,71.1 ± 2.8%,–,–,–,73.5 ± 2.8%,56.7 ± 3.3%,–,–
"CCCCCCCCCCCC1=C(O)C(=O)c2c(nc3ccccc3c2-c2ccc(C)c(C)c2)C1=O [Compound 6i, 2-Hydroxy-9-(3,4-dimethylphenyl)-3-undecylacridine-1,4-dione]",99.8 ± 3%,92.6 ± 5.4%,–,–,–,93.3 ± 4.3%,75.1 ± 2.9%,> 40 µM,> 40 µM
"CCCCCCCCCCCC1=C(O)C(=O)c2c(nc3ccccc3c2-c2ccc(OC)c(OC)c2)C1=O [Compound 6j, 2-Hydroxy-9-(3,4-dimethoxyphenyl)-3-undecylacridine-1,4-dione]",85.5 ± 6.2%,68.4 ± 8.6%,–,–,–,85.2 ± 3.7%,64 ± 2.6%,–,–
"CCCCCCCCCCCC1=C(O)C(=O)c2c(nc3cc(C)cc(C)c3c2-c2ccc([N+](=O)[O-])cc2)C1=O [Compound 6l, 2-Hydroxy-6,8-dimethyl-9-(4-nitrophenyl)-3-undecylacridine-1,4-dione]",64.8 ± 6.7%,55.9 ± 9.4%,–,–,–,82.3 ± 0.3%,63.8 ± 4.8%,–,–
